Experimental data reported in ChEMBL document CHEMBL4043153, “Lead selection of antiparasitic compounds from a focused library of benzenesulfonyl derivatives of heterocycles” (Bioorg Med Chem Lett, 2017).
Calls of active or inactive are those of the source. No cut-off for these calls is given here.

Assays:
Trypanosoma cruzi [1] = experiment: Antiparasitic activity against Trypanosoma cruzi Tulahuen C4 intracellular amastigotes infected in rat L6 cells assessed as growth inhibition at 4.8 ug/ml after 96 hrs by CPRG/Nonidet reagent based photometric analysis relative to control; format: functional; conditions: Tulahuen C4, L6, 96 h, read-out: GI
[2] = test system: Trypanosoma brucei rhodesiense; experiment: Antiparasitic activity against Trypanosoma brucei rhodesiense STIB 900 trypomastigote bloodstream form assessed as growth inhibition at 0.8 ug/ml after 72 hrs by resazurin dye-based fluorometric analysis relative to control; format: functional; conditions: STIB 900, 72 h, read-out: GI
Leishmania donovani [3] = experiment: Antiparasitic activity against Leishmania donovani MHOM-ET-67/L82 axenic amastigotes assessed as growth inhibition at 4.8 ug/ml after 72 hrs by resazurin dye-based fluorometric analysis relative to control; format: functional; conditions: MHOM-ET-67/L82, 72 h, read-out: GI
[4] = test system: Trypanosoma brucei rhodesiense; experiment: Antiparasitic activity against Trypanosoma brucei rhodesiense STIB 900 trypomastigote bloodstream form assessed as growth inhibition at 4.8 ug/ml after 72 hrs by resazurin dye-based fluorometric analysis relative to control; format: functional; conditions: STIB 900, 72 h, read-out: GI
Leishmania donovani [5] = experiment: Antiparasitic activity against Leishmania donovani MHOM-ET-67/L82 axenic amastigotes assessed as growth inhibition at 0.8 ug/ml after 72 hrs by resazurin dye-based fluorometric analysis relative to control; format: functional; conditions: MHOM-ET-67/L82, 72 h, read-out: GI
Trypanosoma cruzi [6] = experiment: Antiparasitic activity against Trypanosoma cruzi Tulahuen C4 intracellular amastigotes infected in rat L6 cells assessed as growth inhibition at 0.8 ug/ml after 96 hrs by CPRG/Nonidet reagent based photometric analysis relative to control; format: functional; conditions: Tulahuen C4, L6, 96 h, read-out: GI
Plasmodium falciparum [7] = experiment: (§1) Antiparasitic activity against intraerythrocytic form of chloroquine/pyrimethamine-resistant Plasmodium falciparum K1 infected in human RBC assessed as growth inhibition at 4.8 ug/ml preincubated for 48 hrs followed by [3H]-hypoxanthine addition measured after 24 hrs by liquid scintillation counting analysis relative to control; format: functional; conditions: read-out: GI
Plasmodium falciparum [8] = experiment: as §1, with “0.8” for “4.8”; format: functional; conditions: read-out: GI
[9] = Selectivity index, ratio of IC50 for rat L6 cells to IC50 for Trypanosoma cruzi Tulahuen C4 intracellular amastigotes infected in rat L6 cells; format: toxicity, cell-based; conditions: read-out: Ratio IC50
Trypanosoma cruzi [10] = experiment: Antiparasitic activity against Trypanosoma cruzi Tulahuen C4 intracellular amastigotes infected in rat L6 cells after 96 hrs by CPRG/Nonidet reagent based photometric analysis; format: functional, cell-based; conditions: Tulahuen C4, L6, 96 h
L6 = experiment: Cytotoxicity against rat L6 cells assessed as cell viability after 72 hrs by Alamar blue assay; format: cell-based; conditions: L6, 72 h
Plasmodium falciparum [11] = experiment: Antiparasitic activity against intraerythrocytic form of chloroquine/pyrimethamine-resistant Plasmodium falciparum K1 infected in human RBC preincubated for 48 hrs followed by [3H]-hypoxanthine addition measured after 24 hrs by liquid scintillation counting analysis; format: functional

Row | Compound | inhibition of growth at 4.8 µg/mL (Trypanosoma cruzi [1]) | inhibition of growth at 0.8 µg/mL [2] | inhibition of growth at 4.8 µg/mL (Leishmania donovani [3]) | inhibition of growth at 4.8 µg/mL [4] | inhibition of growth at 0.8 µg/mL (Leishmania donovani [5]) | inhibition of growth at 0.8 µg/mL (Trypanosoma cruzi [6]) | inhibition of growth at 4.8 µg/mL (Plasmodium falciparum [7]) | inhibition of growth at 0.8 µg/mL (Plasmodium falciparum [8]) | selectivity ratio [9] | IC50 (Trypanosoma cruzi [10]) | IC50 (L6) | Activity (Plasmodium falciparum [11])
1 | O=S(=O)(c1ccc(Br)cc1)N1CCc2ccccc21 | 28.1% | 5.3% | 77.7% | 0% | 17.9% | 4.2% | 63.5% | 9.8% |  |  |  | 
2 | CC1CCc2ccccc2N1S(=O)(=O)c1ccc(C(F)(F)F)cc1 (stereo unspecified) | 98.2% | 5.5% | 96% | 8.1% | 29% | 5.3% | 98.8% | 26.4% | 2 | 5.89 µM | 12.2 µM | 
3 | CC1CCc2ccccc2N1S(=O)(=O)c1cccc(C(F)(F)F)c1 (stereo unspecified) | 95.6% | 1.8% | 82.3% | 0% | 25.8% | 5.4% | 81.3% | 5.8% | 1.98 | 6.6 µM | 13.1 µM | 
4 | O=[N+]([O-])c1ccccc1S(=O)(=O)n1nnc2ccccc21 | 7.1% | 0% | 89.4% | 1.3% | 32.7% | 7.3% | 0% | 0% |  |  |  | 
5 | CC1Cc2ccccc2N1S(=O)(=O)c1cccc(C(F)(F)F)c1 (stereo unspecified) | 5.7% | 0% | 77.6% | 0% | 13.5% | 0% | 77.1% | 15.1% |  |  |  | 
6 | O=S(=O)(c1ccccc1)n1ccc2ccccc21 |  |  |  |  |  |  |  |  |  |  |  | Active
7 | O=[N+]([O-])c1cccc(S(=O)(=O)n2ccc3ccccc32)c1 | 40.5% | 1.9% | 59.3% | 3.9% | 11.7% | 0% | 68.8% | 8% |  |  |  | 
8 | CC1Cc2ccccc2N1S(=O)(=O)c1ccc(F)cc1 (stereo unspecified) | 4.8% | 2.3% | 47% | 0% | 4% | 0% | 65% | 12.6% |  |  |  | 
9 | O=S(=O)(c1ccccc1)n1nnc2ccccc21 |  |  |  |  |  |  |  |  |  |  |  | Active
10 | CC(=O)c1ccc(S(=O)(=O)N2c3ccccc3CCC2C)cc1 (stereo unspecified) | 91.9% | 0% | 45.7% | 1.5% | 6% | 0% | 29.8% | 4% |  |  |  | 
11 | O=S(=O)(c1ccc(Cl)cc1)N1CCc2ccccc21 | 1.5% | 0% | 73.6% | 0% | 6.9% | 0% | 63.7% | 3.7% |  |  |  | 
12 | CC(=O)c1ccc(S(=O)(=O)n2nnc3ccccc32)cc1 | 6.1% | 2.8% | 41.6% | 4.9% | 17.3% | 0% | 5.6% | 0% |  |  |  | 
13 | CC1Cc2ccccc2N1S(=O)(=O)c1cccc([N+](=O)[O-])c1 (stereo unspecified) | 31.6% | 7% | 66.2% | 12.6% | 26% | 2.5% | 62.6% | 14.9% |  |  |  | 
